This is an account of results in patent US20260215887A1, “COATING COMPOSITION FOR THE TREATMENT OR PREVENTION OF PERIIMPLANTITIS AND PREPARATION METHOD THEREOF” (UNIVERSITAT JAUME I, priority 2023, published 2026).

Assay [1] deals with Streptococcus Gordonii (CECT 804). Nature of the assay: Proliferation and bacterial count on inoculated grade-IV titanium disks. The format is cell-based. From the text:
The mechanism of action of the composition of Example 1 was further investigated by studying in parallel assays the proliferation of bacterial population of Streptococcus Gordonii on grade-IV titanium plates which are either uncoated or coated with M1 (free of octenidine) or M3 (2% in weight of octenidine) or with a solution of octenidine having an equivalent amount of octenidine as the composition M3. The following experimental procedure was used.
All materials used were sterile or have been previously sterilized by autoclaving. The assays were performed inside a level 2 biosafety cabinet. Three different grade IV-Ti disks were used to perform the assay. This procedure was carried out for each of the assays: First, a suspension of Streptococcus Gordonii (CECT 804) of known concentration was prepared. For this purpose, a test tube is prepared with 10 mL of d.d. H2O to which bacteria were added until the desired concentration (Concentration=1×10^6 CFU/mL). […] 500 μL of bacterial suspension of known concentration (1×10^6 CFU/mL) was then added in wells of a sterile 24-well plate. Subsequently, the grade-IV Ti disc was immersed in the bacterial suspension for 1 minute (1 disk per well) in order to inoculate the disc. […]
Once this time was elapsed, bacteria population was counted. […]

In a further assay the test system is Staphylococcus aureus. The note with it: known in the art; cited from earlier work.

Turning to `CCCCCCCCN=c1ccn(CCCCCCCCCCn2ccc(=NCCCCCCCC)cc2)cc1` [octenidine], the “proliferation of bacteria population on coated disks” value in assay [1] (after 24 hours incubation at 37° C., FIG. 22) was “significant reduction of bacteria proliferation”. In addition, the “bacterial count of bacteria adhered to the titanium surface” value in assay [1] (average of three samples per disk, 24 h at 37° C., uncoated disk 1,726 × 10^7) is reported as 483,33 CFU/mL. Besides, in the assay with Staphylococcus aureus, the “minimal bactericide concentration (MBC)” value is less than 2 µg/mL and the “minimal inhibitory concentration (MIC)” value is less than 2 µg/mL.
